20 compounds from patent publication US10689378B2, “Triazolopyridine compounds and uses thereof” (Novartis AG, priority 2016, dated 2020) can be followed below.

Assay [1] has as its system H3K27 methylation in G401 cell. As to the kind of experiment: ELISA (H3K27 methylation) assay in G401 cells. It counts as cell-based, human. The note with it: Homo sapiens, G-401, read-out: (c) IC50, ELISA Qualified. As to the method: Compounds of the present invention were assessed for their ability to inhibit PRC2 activity in a pentameric complex of EZH2, SUZ12, EED, Rbap48 and AEBP in biochemical assays. The ability of compounds of the present invention to inhibit cellular activity of PRC2 was assessed by analysing histone H3 lysine 27 methylation in human cell lines. The ability of compounds of the present invention to inhibit cancers was derived from their ability to modulate activity in human cancer cell lines bearing specific dependence to PRC2 activity to maintain cancerous growth.
ELISA (H3K27 Methylation) Assay
Representative compounds of the present invention were serially and separately diluted 3-fold in DMSO to obtain a total of eight or twelve concentrations. Then the compounds were added to G401 cell cultured in 384-well plate at 1:500 dilution to obtain the highest concentration of 20 μM. The cells were further cultured for 48 h before ELISA procedure.
Histone extraction: Cells, in 384-well plate, were washed with PBS (10×PBS buffer (80 g NaCl (Sigma, S3014), 2 g KCl (Sigma, 60128), 14.4 g Na2HPO4 (Sigma, S5136), 2.4 g KH2PO4 (Sigma, P9791) to 1 L water, pH to 7.4) and lysed with the addition of lysis buffer (0.4N HCl; 45 μL per well). The plate was gently agitated at 4° C. for 30 min. The cell lysate was neutralized with neutralization buffer (0.5 M sodium phosphate dibasic, pH 12.5, 1 mM DTT; 36 μL per well). The plate was agitated to ensure the lysates were well mixed prior to the ELISA protocol.
ELISA protocol: Cell lysates were transferred to the wells of a 384-well plate and the final volume was adjusted to 50 μL per well with PBS. The plate was sealed, centrifuged at 2,000 rpm for 2 min and incubated at 4° C. for about 16 h. The plate was washed with TBST buffer (1×TBS (10×TBS: 24.2 g Tris (Sigma, T6066), 80 g NaCl (Sigma, S3014) to 1 L of water and adjust pH to 7.6 with HCl) with 0.1% Tween-20). Blocking buffer (TBST, 5% BSA; 50 μL per well) was added and the plate was incubated for 1 h at rt. The blocking buffer was removed and primary antibody was added (30 μL per well). The following dilutions were performed with blocking buffer: for anti-H3K27me3 antibody (Cell Signaling Technology, #9733), dilution was 1:1000; for anti-H3K27me2 antibody (Cell Signaling Technology, #9288), dilution was 1:100; for anti-H3 antibody (Abcam, Cat #24834), dilution was 1:1000. The primary antibody was incubated in the plate at rt for 1 h. The wells were washed with TBST and incubated with secondary antibody for 1 h at rt. For secondary antibodies, the following dilutions were carried out with blocking buffer: anti-rabbit antibody (Jackson ImmunoResearch, #111-035-003), dilution was 1:2000; and anti-mouse antibody (Cell signaling technology, #7076), dilution was 1:1000. After 1 h of incubation at rt, the wells were washed with TBST. ECL substrate (Pierce, #34080) was added at 30 μL per well and the plates were centrifuged at 2,000 rpm for 2 min. The signal was read using a PerkinElmer Envision Reader. The H3K27 methylation readouts were normalized using H3 signal and then percentage inhibition was calculated against the samples treated with DMSO. The data were then fit to a dose response curve using the program Helios to get the IC50 values of the test compound.

A further assay addresses T1, EED (1-441)-His protein (Homo sapiens, UniProt O75530).
T1 construct: 30 nM EED (1-441)-His protein
As to the kind of experiment: EED-H3K27Me3 peptide competition binding assay by AlphaScreen. Here is the method: EED-H3K27Me3 Peptide Competition Binding Assay by AlphaScreen (α-Screen)
To assess the compounds' potency in the EED-H3K27Me3 competition binding assay, compounds were serially diluted 3-fold in DMSO to obtain a total of twelve concentrations. Then compounds at each concentration (75 nL of each) were transferred by Mosquito into a 384-well Perkin Elmer ProxiPlate 384 plus plates. 8 uL of solutions containing 30 nM EED (1-441)-His protein and 15 nM biotin-H3K27Me3 (19-33) peptide in the buffer (25 mM HEPES, pH 8, 0.02% Tween-20, 0.5% BSA) were added to the wells and then incubated with compound for 20 min. AlphaScreen detection beads mix was prepared immediately before use by mixing nickel chelate acceptor beads and streptavidin donor beads in a 1:1 ratio (Perkin Elmer, Product No. 6760619C/M/R) into the buffer described above. Then 4 μL of detection beads mix was added to the plate and incubate in the dark at the rt for 1 h. The final concentration of donor and acceptor beads was 10 μg/mL for each. Plates were read on EnVision (PerkinElmer) using the AlphaScreen setting adapted for optimal signal detection with a 615 nm filter, after sample excitation at 680 nm. The emission signal at 615 nm was used to quantify compounds inhibition. AlphaScreen signals were normalized based on the reading coming from the positive (maximum signal control) and negative controls (minimum signal control) to give percentage of activities left. The data were then fit to a dose response equation using the program Helios (Novartis) to get the IC50 values. Helios is a Novartis in-house assay data analysis software using the methods described by Normolle, D. P., Statistics in Medicine, 12:2025-2042 (1993); Formenko, I. et al, Computer Methods and Programs in Biomedicine, 82, 31-37 (2006); Sebaugh, J. L., Pharmaceutical Statistics, 10:128-134 (2011); Kelly, C. et al., Biometrics, 46(4):1071-1085 (1990); and Kahm, M. et al., Journal of Statistical Software, 33 (7): (2010) (grofit: Fitting Biological Growth Curves with R, pages 1-21, available at http://www.jstatsoft.org/).

[2] abbreviates: read-out: (a) IC50, EED Alphascreen binding Qualified.

Structures are written as SMILES. Like-named read-outs stand apart in the source and are kept apart here.

T1 sequence (O75530 whole entry): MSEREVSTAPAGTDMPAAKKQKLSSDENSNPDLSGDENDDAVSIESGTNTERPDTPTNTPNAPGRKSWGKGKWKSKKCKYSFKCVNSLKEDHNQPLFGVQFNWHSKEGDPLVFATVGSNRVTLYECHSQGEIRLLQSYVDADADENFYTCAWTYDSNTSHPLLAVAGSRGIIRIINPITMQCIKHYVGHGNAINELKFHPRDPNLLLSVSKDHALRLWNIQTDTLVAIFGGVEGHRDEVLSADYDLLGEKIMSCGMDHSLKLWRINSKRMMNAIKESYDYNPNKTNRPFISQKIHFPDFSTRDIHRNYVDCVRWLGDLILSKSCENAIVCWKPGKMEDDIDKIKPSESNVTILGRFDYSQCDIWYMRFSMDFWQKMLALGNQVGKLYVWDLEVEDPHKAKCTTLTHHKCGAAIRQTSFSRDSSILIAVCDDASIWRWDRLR

As to `COc1cccc(CNc2ccc(-c3ccc(CN(C)C)cc3)c3nncn23)c1` [Example 14, 8-(4-((dimethylamino)methyl)phenyl)-N-(3-methoxybenzyl)-[1,2,4] triazolo[4,3-a]pyridin-5-amine], the IC50 in assay [1] came out at 280 nM; on EED (1-441)-His protein (setting [2]), 325 nM.

For `CN(C)Cc1ccc(-c2ccc(NCc3ccccc3)n3cnnc23)cc1` [Example 17, N-benzyl-8-(4-((dimethylamino)methyl)phenyl)-[1,2,4]triazolo[4,3-a] pyridin-5-amine], the IC50 is 249 nM in assay [1] and 234 nM at EED (1-441)-His protein (setting [2]).

As for `COc1ccccc1CNc1ccc(-c2ccccc2)c2nncn12` [Example 23, N-(2-methoxybenzyl)-8-phenyl-[1,2,4]triazolo[4,3-a] pyridin-5-amine], the IC50 in assay [1] amounted to 521 nM; on EED (1-441)-His protein (setting [2]), 180 nM.

`Cc1ccccc1CNc1ccc(-c2ccc(CN(C)C)cc2)c2nncn12` [Example 31, 8-(4-((dimethylamino)methyl)phenyl)-N-(2-methylbenzyl)-[1,2,4]triazolo[4,3-a]pyridin-5-amine]: the IC50 in assay [1] was 508 nM; at EED (1-441)-His protein (setting [2]) it was 394 nM.

For the compound `CN(C)Cc1ccc(-c2ccc(NCc3cccc(F)c3)n3cnnc23)cc1` [Example 35, 8-(4-((dimethylamino)methyl)phenyl)-N-(3-fluorobenzyl)-[1,2,4] triazolo [4,3-a]pyridin-5-amine], the 50% inhibitory concentration (IC50) came out at 3490 nM in assay [1] and 2570 nM at EED (1-441)-His protein (setting [2]).

`CN(C)Cc1ccc(-c2ccc(NCc3ccccc3F)n3cnnc23)cc1` [Example 36, 8-(4-((dimethylamino)methyl)phenyl)-N-(2-fluorobenzyl)-[1,2,4] triazolo [4,3-a]pyridin-5-amine]: the values for the IC50 (in assay [1]; on EED (1-441)-His protein (setting [2])) were 937 nM and 1010 nM, respectively.

On to `CN(C)Cc1ccc(-c2ccc(NCc3ccc(F)cc3)n3cnnc23)cc1` [Example 37, 8-(4-((dimethylamino)methyl)phenyl)-N-(4-fluorobenzyl)-[1,2,4]triazolo[4,3-a] pyridin-5-amine], for which the figures for the IC50 (in assay [1]; at EED (1-441)-His protein (setting [2])) were 1800 nM and 1520 nM, respectively.

For `COc1ccccc1CNc1ccc(-c2ccccc2C)c2nncn12` [Example 46, N-(2-methoxybenzyl)-8-(o-tolyl)-[1,2,4]triazolo[4,3-a] pyridin-5-amine], the IC50 in assay [1] was determined as 529 nM; at EED (1-441)-His protein (setting [2]), 160 nM.

`CN(C)Cc1ccc(-c2ccc(NCc3cccnc3)n3cnnc23)cc1` [Example 48, 8-(4-((dimethylamino)methyl)phenyl)-N-(pyridin-3-ylmethyl)-[1,2,4]triazolo[4,3-a]pyridin-5-amine]: the IC50 came out at 2280 nM in assay [1] and 4230 nM on EED (1-441)-His protein (setting [2]).

Take `COc1ccc(F)c(CNc2ccc(-c3ccc(CN(C)C)cc3)c3nncn23)c1` [Example 49, 8-(4-((dimethylamino)methyl)phenyl)-N-(2-fluoro-5-methoxybenzyl)-[1,2,4] triazolo[4,3-a]pyridin-5-amine]: the IC50 is 140 nM in assay [1] and 164 nM on EED (1-441)-His protein (setting [2]).

On to `COc1cncc(-c2ccc(NCc3ccccc3OC)n3cnnc23)c1` [Example 51, N-(2-methoxybenzyl)-8-(5-methoxypyridin-3-yl)-[1,2,4] triazolo[4,3-a]pyridin-5-amine], for which the figures for the IC50 (in assay [1]; on EED (1-441)-His protein (setting [2])) were 159 nM and 127 nM, respectively.

For `COc1ccccc1CNc1ccc(-c2ccc(CN3CCCC3=O)cc2)c2nncn12` [Example 55, 1-(4-(5-((2-methoxybenzyl)amino)-[1,2,4]triazolo[4,3-a]pyridin-8-yl)benzyl) pyrrolidin-2-one], the IC50 in assay [1] came out at 44.1 nM; on EED (1-441)-His protein (setting [2]), 15.1 nM.

On to `COc1ccccc1CNc1ccc(-c2cncnc2)c2nncn12` [Example 58, N-(2-methoxybenzyl)-8-(pyrimidin-5-yl)-[1,2,4] triazolo[4,3-a]pyridin-5-amine], for which the IC50 in assay [1] was 66.3 nM; at EED (1-441)-His protein (setting [2]) it was 59.8 nM.

For `COc1cc(-c2ccc(NCc3ccccc3OC)n3cnnc23)ccn1` [Example 59, N-(2-methoxybenzyl)-8-(2-methoxypyridin-4-yl)-[1,2,4] triazolo[4,3-a]pyridin-5-amine], the values for the IC50 (in assay [1]; at EED (1-441)-His protein (setting [2])) were 168 nM and 31.6 nM, respectively.

With `COc1ccccc1CNc1ccc(-c2ccc(CN3CCCC3)cc2)c2nncn12` [Example 60, N-(2-methoxybenzyl)-8-(4-(pyrrolidin-1-ylmethyl)phenyl)-[1,2,4]triazolo[4,3-a] pyridin-5-amine], the IC50 in assay [1] is 56.5 nM; at EED (1-441)-His protein (setting [2]), 40.2 nM.

With `COc1ccccc1CNc1ccc(-c2ccc(N3CCOCC3)c(Cl)c2)c2nncn12` [Example 65, 8-(3-chloro-4-morpholinophenyl)-N-(2-methoxybenzyl)-[1,2,4] triazolo[4,3-a]pyridin-5-amine], the IC50 in assay [1] was found to be 11000 nM; on EED (1-441)-His protein (setting [2]), 1660 nM.

`COc1ccccc1CNc1ccc(-c2ccc(-c3nn[nH]n3)cc2)c2nncn12` [Example 74, 8-(4-(2H-tetrazol-5-yl)phenyl)-N-(2-methoxybenzyl)-[1,2,4]triazolo[4,3-a] pyridin-5-amine]: the values for the IC50 (in assay [1]; on EED (1-441)-His protein (setting [2])) were 4240 nM and 320 nM, respectively.

As for `COc1ccccc1CNc1ccc(-c2cnc(N3CCN(C)CC3)c(Cl)c2)c2nncn12` [Example 75, 8-(5-chloro-6-(4-methylpiperazin-1-yl)pyridin-3-yl)-N-(2-methoxybenzyl)-[1,2,4] triazolo[4,3-a]pyridin-5-amine], the results for the IC50 (in assay [1]; at EED (1-441)-His protein (setting [2])) were 488 nM and 132 nM, respectively.

Regarding `COc1cccc(F)c1CNc1ccc(-c2ccc(S(=O)(=O)N(C)C)cc2)c2nncn12` [Example 79, 4-(5-((2-fluoro-6-methoxybenzyl)amino)-[1,2,4]triazolo[4,3-a]pyridin-8-yl)-N,N-dimethylbenzene sulfonamide], the IC50 is 78.5 nM in assay [1] and 116 nM at EED (1-441)-His protein (setting [2]).

With `COc1cc(F)cc(F)c1CNc1ccc(-c2cnc(OC3CC3)nc2C)c2nncn12` [Example 344, 8-(2-cyclopropoxy-4-methylpyrimidin-5-yl)-N-(2,4-difluoro-6-methoxybenzyl)-[1,2,4]triazolo[4,3-a]pyridin-5-amine], the IC50 at EED (1-441)-His protein (EED-H3K27Me3 peptide competition, AlphaScreen, read-out: (a) IC50 EED Alphascreen binding Qualified) amounted to 25.5 nM.
